From ChEMBL document CHEMBL1122144, “(+/-)-4-Aryl-4,5-dihydro-3H-1,3-benzodiazepines. 1. Synthesis and evaluation of (+/-)-4,5-dihydro-2,3-dimethyl-4-phenyl-3H-1,3-benzodiazepine and analogues as potential antidepressant agents” (J Med Chem, 1982)
pIC50: −log10 of the molar value.

Assays:
[1] = test system: Mus musculus; test: In vivo antidepressant activity assessed by prevention of tetrabenazine-induced ptosis in mice following i.p. administration.; assay type: functional
[2] = test system: Rattus norvegicus; test: Potentiation of 5-HT induced behavioral syndrome in pargyline-pretreated rats (ip); assay type: functional
[3] = test system: Mus musculus; test: Inhibition of pentylenetetrazole lethality in mice (po); assay type: functional
[4] = test system: Mus musculus; test: Prevention of amphetamine aggregation toxicity in mice (po); assay type: functional
[5] = test system: Mus musculus; test: Compound was tested in vivo for potential antidepressant activity which was assessed by its prevention of tetrabenazine-induced ptosis in mice; assay type: functional
[6] = test system: Mus musculus; test: Compound was tested in vivo for antagonism of oxotremorine induced salivation in mouse.; assay type: functional
[7] = organism: Rattus norvegicus; test: In vitro inhibition against neuronal uptake of serotonin in whole brain.; assay type: functional
[8] = test system: Mus musculus; test: In vivo for the inhibition of potentiation of yohimbine -induced toxicity in mouse; assay type: functional
[9] = test system: Mus musculus; test: Compound was tested in vivo for antagonism of oxotremorine induced -tremors in mouse.; assay type: functional
[10] = organism: Rattus norvegicus; test: In vitro inhibition against neuronal uptake of norepinephrine in whole brain; assay type: functional
[11] = organism: Mus musculus; test: Compound was tested for physostigmine lethality in mouse.; assay type: functional
[12] = test system: Rattus norvegicus; test: Compound was screened in vivo for antidepressant activity by 5 HTP potentiation method in rat.; assay type: functional
[13] = organism: Rattus norvegicus; test: In vitro inhibition against neuronal uptake of dopamine in striatum.; assay type: functional
[14] = Compound was tested in vitro for its ability to displace [3H]quinuclidine benzylate (QNB) from Muscarinic acetylcholine receptor on rat whole brain membranes.; assay type: cell membranes
[15] = organism: Rattus norvegicus; test: In vitro inhibition against neuronal uptake of norepinephrine in rat hypothalamus; assay type: functional
[16] = test system: Rattus norvegicus; test: Compound was tested for beta -adrenergic sensitivity when administered to rats at 10 mg/kg, perorally, twice daily for 10 days.; assay type: functional; settings: 240 h, route oral
[17] = organism: Rattus norvegicus; test: In vitro inhibition against neuronal uptake of norepinephrine in rat whole brain; assay type: functional
[18] = test system: Rattus norvegicus; test: Compound was screened in vivo for antidepressant activity by 5 HTP potentiation method in rat; assay type: functional
[19] = test system: Rattus norvegicus; test: Compound was screened in vivo for antidepressant activity by tryptamine seizure potentiation method in rat.; assay type: functional
[20] = organism: Rattus norvegicus; test: In vitro inhibition against neuronal uptake of dopamine in rat striatum; assay type: functional
[21] = test system: Mus musculus; test: In vivo inhibition of potentiation of yohimbine -induced toxicity in mouse; assay type: functional
[22] = test system: Rattus norvegicus; test: In vivo effective dose for intraperitoneal administration required for the muricidal activity was determined in rat; assay type: functional; settings: ip
[23] = test system: Rattus norvegicus; test: In vivo for the inhibition of muricidal activity. The effective dose (intraperitoneally) required for the activity was determined in rat; assay type: functional; settings: ip
[24] = test system: Rattus norvegicus; test: Compound was tested in vitro for beta -adrenergic sensitivity and administered to rats at 10 mg/kg, perorally, twice daily for 10 days.; assay type: functional; settings: 240 h, route oral
[25] = test system: Mus musculus; test: Prevention of tetrabenazine-induced ptosis in mice (ip); assay type: functional
[26] = Mus musculus, ip, read-out: ED50

Molecule `CC1=NC(c2ccccc2)Cc2ccccc2N1c1ccccc1` (stereo not given) has an ED50 [1, 26] of over 20 mg/kg.
`CCCC1=Nc2ccccc2CC(c2ccccc2)N1C` (stereo not given) gave an ED50 [1, 26] of over 20 mg/kg.
Molecule `CCN1C(C)=Nc2ccccc2CC1c1ccccc1` (stereo not given) has an ED50 [1, 26] of about 20 mg/kg.
`CNC(Cc1ccccc1[N+](=O)[O-])c1ccccc1` (stereo not given) gave an ED50 [2] of over 10 mg/kg, an ED50 [3] of over 40 mg/kg and an ED50 [4] of over 20 mg/kg.
In the case of `CCC1=NC(c2ccccc2)Cc2ccccc2N1` (stereo not given), the ED50 [1, 26] was over 5 mg/kg.
`CN1C(c2ccccc2)=Nc2ccccc2CC1c1ccccc1` (stereo not given) showed an ED50 [1, 26] of over 20 mg/kg.
For `C1=NC(c2ccccc2)Cc2ccccc2N1` (stereo not given), the ED50 [1, 26] was about 20 mg/kg.
`CCCN1C(C)=Nc2ccccc2CC1c1ccccc1` (stereo not given) gave an ED50 [1, 26] of over 5 mg/kg.
In the case of `CN(C)CCC=C1c2ccccc2CCc2ccccc21` [AMITRIPTYLINE], the ED50 [5] was 1.9 mg/kg, the ED50 [6] was over 5 mg/kg and the pIC50 [7] was 5.70. The ED50 [8] was 8 mg/kg, the ED50 [1, 26] was 1.5 mg/kg and the ED50 [9] was 1.3 mg/kg. For the same molecule, the pIC50 [10] was 5.33, the ED50 [11] was 9.6 mg/kg and the ED50 [12] was 7.1 mg/kg. It also gave a pIC50 [13] of 4.85 and a pIC50 [14] of 5.52.
`CC1=Nc2ccccc2CC(c2ccccc2)N1C.Cl` (stereo not given) [DAZEPINIL HYDROCHLORIDE] showed a pIC50 [15] of 6.05, an ED50 [6] of over 25 mg/kg and a pIC50 [7] of 5.08. It also gave an inhibition in vivo at 10 mg/kg [16] of -44%, an ED50 [1] of 2.1 mg/kg and an ED50 [1, 26] of 1.5 mg/kg. For the same molecule, the ED50 [9] was over 25 mg/kg, the pIC50 [17] was 5.77 and the ED50 [18] was over 10 mg/kg. The ED50 [19] was over 25 mg/kg, the pIC50 [20] was 5.28 and the ED50 [21] was 5.9 mg/kg. The ED50 [22] was over 20 mg/kg.
`CN1C=Nc2ccccc2CC1c1ccccc1` (stereo not given) showed an ED50 [1, 26] of 9.7 mg/kg.
`CN1C(C2CC2)=Nc2ccccc2CC1c1ccccc1` (stereo not given) showed an ED50 [1, 26] of over 20 mg/kg.
`CC1=Nc2ccccc2CC(c2ccccc2)N1Cc1ccccc1` (stereo not given) showed an ED50 [1, 26] of over 20 mg/kg.
`CC1=NC(c2ccccc2)Cc2ccccc2N1C` (stereo not given) gave an ED50 [1, 26] of over 20 mg/kg.
For `CC1=NC(c2ccccc2)Cc2ccccc2N1` (stereo not given), the ED50 [1, 26] was over 20 mg/kg.
`CNCCCN1c2ccccc2CCc2ccccc21` [DESIPRAMINE] showed an ED50 [23] of 8.2 mg/kg, an ED50 [19] of over 25 mg/kg and an inhibition in vivo at 10 mg/kg [24] of -50%.
Work on `c1ccc(C2Cc3ccccc3NC(C3CC3)=N2)cc1` (stereo not given) yielded an ED50 [1, 26] of over 20 mg/kg.
For `CCC1=Nc2ccccc2CC(c2ccccc2)N1C` (stereo not given), the ED50 [1, 26] was 0.6 mg/kg.
With `c1ccc(C2=NC(c3ccccc3)Cc3ccccc3N2)cc1` (stereo not given) the ED50 [1, 26] was over 20 mg/kg.
Molecule `CC1=Nc2ccccc2CC(c2ccccc2)N1CC1CCCCC1` (stereo not given) has an ED50 [1, 26] of about 20 mg/kg.
For `CC(=O)C(Cc1ccccc1NCN1C(=O)CCC1=O)c1ccccc1` (stereo not given), the ED50 [2] was over 10 mg/kg, the ED50 [3] was over 40 mg/kg and the ED50 [4] was over 20 mg/kg. It also gave an ED50 [25] of over 20 mg/kg.
